ChEMBL document CHEMBL5465560, “Selectivity Literature for EUbOPEN Chemogenomic Library” (2024)

Assays:
[1] = system: Mast/stem cell growth factor receptor Kit (Homo sapiens), P10721 [V559D,T670I]; conditions: at 10 µM
[2] = target: T1, Inhibitor of nuclear factor kappa-B kinase subunit alpha (Homo sapiens) (UniProt O15111); assay: Selectivity interaction (KinomeScan (DiscoverX)) EUB0000092b CHUK; conditions: at 10 µM
T1 sequence (whole entry): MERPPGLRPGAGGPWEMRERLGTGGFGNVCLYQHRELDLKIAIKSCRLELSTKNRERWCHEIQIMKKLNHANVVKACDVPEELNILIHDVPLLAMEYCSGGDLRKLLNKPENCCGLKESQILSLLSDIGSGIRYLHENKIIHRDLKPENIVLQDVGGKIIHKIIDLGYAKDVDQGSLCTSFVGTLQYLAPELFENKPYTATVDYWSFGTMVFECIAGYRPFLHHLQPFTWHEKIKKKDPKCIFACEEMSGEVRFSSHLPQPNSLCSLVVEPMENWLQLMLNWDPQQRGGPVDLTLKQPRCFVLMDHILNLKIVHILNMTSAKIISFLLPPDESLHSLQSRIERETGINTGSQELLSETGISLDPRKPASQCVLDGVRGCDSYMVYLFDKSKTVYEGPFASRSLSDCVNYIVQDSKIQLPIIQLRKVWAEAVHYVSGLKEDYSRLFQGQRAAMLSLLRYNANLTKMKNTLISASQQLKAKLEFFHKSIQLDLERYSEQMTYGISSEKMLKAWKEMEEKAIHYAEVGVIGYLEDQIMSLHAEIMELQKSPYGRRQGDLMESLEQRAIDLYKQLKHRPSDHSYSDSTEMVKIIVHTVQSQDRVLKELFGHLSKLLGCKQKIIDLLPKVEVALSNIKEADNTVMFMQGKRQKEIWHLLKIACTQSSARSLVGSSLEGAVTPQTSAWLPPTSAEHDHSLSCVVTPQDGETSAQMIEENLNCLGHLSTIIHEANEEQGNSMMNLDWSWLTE

[3] = target: T2, Serine/threonine-protein kinase LATS2 (Homo sapiens) (UniProt Q9NRM7); assay: Selectivity interaction (KinomeScan (DiscoverX)) EUB0000655a LATS2; conditions: at 10 µM
T2 sequence (whole entry): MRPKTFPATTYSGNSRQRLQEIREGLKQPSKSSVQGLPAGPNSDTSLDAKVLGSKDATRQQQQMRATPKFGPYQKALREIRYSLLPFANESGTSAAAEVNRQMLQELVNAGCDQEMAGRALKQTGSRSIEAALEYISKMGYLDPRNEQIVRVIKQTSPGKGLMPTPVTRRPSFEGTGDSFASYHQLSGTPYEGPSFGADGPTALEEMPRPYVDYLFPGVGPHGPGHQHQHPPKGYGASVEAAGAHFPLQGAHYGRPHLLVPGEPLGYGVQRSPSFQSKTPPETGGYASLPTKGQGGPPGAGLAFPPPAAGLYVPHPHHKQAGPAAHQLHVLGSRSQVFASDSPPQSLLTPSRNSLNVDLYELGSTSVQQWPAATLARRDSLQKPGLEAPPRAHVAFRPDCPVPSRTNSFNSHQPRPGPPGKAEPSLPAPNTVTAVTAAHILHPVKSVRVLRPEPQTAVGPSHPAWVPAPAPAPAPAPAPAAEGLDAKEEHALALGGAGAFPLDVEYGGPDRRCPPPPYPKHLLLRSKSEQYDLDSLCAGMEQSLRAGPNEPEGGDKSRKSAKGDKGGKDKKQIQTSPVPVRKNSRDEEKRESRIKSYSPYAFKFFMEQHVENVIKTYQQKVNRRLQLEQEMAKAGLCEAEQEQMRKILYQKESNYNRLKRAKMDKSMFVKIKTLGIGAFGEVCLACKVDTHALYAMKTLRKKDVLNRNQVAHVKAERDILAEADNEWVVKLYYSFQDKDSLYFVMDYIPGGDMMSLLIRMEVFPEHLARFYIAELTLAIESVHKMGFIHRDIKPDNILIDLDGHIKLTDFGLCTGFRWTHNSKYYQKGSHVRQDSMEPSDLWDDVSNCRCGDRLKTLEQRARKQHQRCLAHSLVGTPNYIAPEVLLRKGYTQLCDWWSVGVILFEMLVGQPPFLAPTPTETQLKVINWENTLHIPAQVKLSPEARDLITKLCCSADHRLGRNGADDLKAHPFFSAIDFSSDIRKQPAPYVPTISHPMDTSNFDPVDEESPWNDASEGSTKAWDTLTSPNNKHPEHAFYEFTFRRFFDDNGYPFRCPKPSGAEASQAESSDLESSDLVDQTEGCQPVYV

[4] = target: Protein polybromo-1 (Homo sapiens) (UniProt Q86U86); assay: Selectivity interaction (Human bromodomain panel (DSF assay)) EUB0000233b PBRM1
[5] = target: Protein kinase C alpha type (Homo sapiens, UniProt P17252); assay: Selectivity interaction (Kinase panel (Z-LYTE Assay)) EUB0001632a PRKCA; conditions: at 10 µM
[6] = target: Cyclin-dependent kinase 2 (Homo sapiens, UniProt P24941); assay: Selectivity interaction (ActivX KiNativ screen (kinase selectivity in THP-1 cell lysates)) EUB0000639a CDK2; assay type: subcellular; conditions: lysate, at 0.2 µM
[7] = target: Beta-1 adrenergic receptor (Homo sapiens, UniProt P08588); assay: Selectivity interaction (Panel of non-epigenetic targets (kinases, GPCRs, ion channels, and transporters, Eurofins) ) EUB0000271b ADRB1; conditions: at 1 µM
[8] = target: Phosphatidylinositol 4-kinase beta (Homo sapiens, UniProt Q9UBF8); assay: Selectivity interaction (KinomeScan (DiscoverX)) EUB0000695a PI4KB; conditions: at 100 nM
[9] = target: Phosphorylase b kinase gamma catalytic chain, skeletal muscle/heart isoform (Homo sapiens) (UniProt Q16816); assay: Selectivity interaction (KinomeScan (DiscoverX)) EUB0000595a PHKG1; conditions: at 10 µM
[10] = target: Macrophage colony-stimulating factor 1 receptor (Homo sapiens) (UniProt P07333); assay: Selectivity interaction (Kinase panel (Carna Biosciences)) EUB0001542aTs CSF1R; conditions: at 1 µM
[11] = target: Serine/threonine-protein kinase SIK2 (Homo sapiens) (UniProt Q9H0K1); assay: Selectivity interaction (Kinase panel (Carna Biosciences)) EUB0001542aTs SIK2; conditions: at 1 µM
[12] = target: Protein arginine N-methyltransferase 7 (Homo sapiens, UniProt Q9NVM4); assay: Selectivity interaction (Scintillation proximity assays) EUB0000230b PRMT7
[13] = target: 5'-AMP-activated protein kinase catalytic subunit alpha-2 (Homo sapiens) (UniProt P54646); assay: Selectivity interaction (ActivX KiNativ screen (ex vivo kinase selectivity in human PBMCs)) EUB0001619a PRKAA2; assay type: cell-based; conditions: PBMC, at 1 µM
5'-AMP-activated protein kinase catalytic subunit alpha-2 (Homo sapiens), sequence (P54646 whole entry, looked up): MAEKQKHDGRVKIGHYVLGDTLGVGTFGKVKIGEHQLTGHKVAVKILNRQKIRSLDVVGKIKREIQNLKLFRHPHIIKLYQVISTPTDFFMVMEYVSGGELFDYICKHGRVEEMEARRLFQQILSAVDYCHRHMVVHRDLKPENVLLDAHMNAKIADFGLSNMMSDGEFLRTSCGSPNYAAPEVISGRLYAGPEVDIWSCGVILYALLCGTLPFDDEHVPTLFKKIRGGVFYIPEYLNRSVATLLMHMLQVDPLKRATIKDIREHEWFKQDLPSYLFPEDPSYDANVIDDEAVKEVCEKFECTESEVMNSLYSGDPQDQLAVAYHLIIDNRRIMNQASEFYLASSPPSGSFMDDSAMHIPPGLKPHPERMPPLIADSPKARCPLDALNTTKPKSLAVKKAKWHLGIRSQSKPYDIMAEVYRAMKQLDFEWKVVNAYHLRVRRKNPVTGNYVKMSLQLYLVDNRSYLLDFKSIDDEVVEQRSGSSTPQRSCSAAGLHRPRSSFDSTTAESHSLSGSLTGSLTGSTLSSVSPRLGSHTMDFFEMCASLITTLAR

Serine/threonine-protein kinase SIK2 (Homo sapiens), sequence (Q9H0K1 whole entry, looked up): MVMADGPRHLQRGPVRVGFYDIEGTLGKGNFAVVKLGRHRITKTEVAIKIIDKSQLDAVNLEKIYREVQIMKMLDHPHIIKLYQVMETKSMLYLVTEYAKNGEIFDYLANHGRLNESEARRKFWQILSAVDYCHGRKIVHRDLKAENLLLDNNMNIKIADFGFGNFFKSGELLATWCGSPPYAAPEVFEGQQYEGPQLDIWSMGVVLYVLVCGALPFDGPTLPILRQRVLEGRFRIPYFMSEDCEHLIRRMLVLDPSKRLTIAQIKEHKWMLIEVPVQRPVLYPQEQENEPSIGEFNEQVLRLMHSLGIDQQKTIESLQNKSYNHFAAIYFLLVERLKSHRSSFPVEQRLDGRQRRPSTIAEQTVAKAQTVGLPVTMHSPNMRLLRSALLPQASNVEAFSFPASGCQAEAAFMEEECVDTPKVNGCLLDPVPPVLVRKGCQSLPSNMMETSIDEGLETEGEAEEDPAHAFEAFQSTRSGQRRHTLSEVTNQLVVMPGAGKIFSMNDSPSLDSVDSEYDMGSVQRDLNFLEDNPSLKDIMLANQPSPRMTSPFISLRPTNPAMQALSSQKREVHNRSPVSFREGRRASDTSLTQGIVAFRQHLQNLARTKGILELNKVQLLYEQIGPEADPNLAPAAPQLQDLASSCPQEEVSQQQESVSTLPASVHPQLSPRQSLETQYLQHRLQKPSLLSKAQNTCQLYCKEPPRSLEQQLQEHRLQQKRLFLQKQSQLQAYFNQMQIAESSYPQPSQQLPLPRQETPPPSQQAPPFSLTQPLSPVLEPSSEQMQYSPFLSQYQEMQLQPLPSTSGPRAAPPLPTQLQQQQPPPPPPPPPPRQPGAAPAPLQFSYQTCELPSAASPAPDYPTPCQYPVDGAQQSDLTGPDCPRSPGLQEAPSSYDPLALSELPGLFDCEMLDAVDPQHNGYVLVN
Macrophage colony-stimulating factor 1 receptor (Homo sapiens), sequence (P07333 whole entry): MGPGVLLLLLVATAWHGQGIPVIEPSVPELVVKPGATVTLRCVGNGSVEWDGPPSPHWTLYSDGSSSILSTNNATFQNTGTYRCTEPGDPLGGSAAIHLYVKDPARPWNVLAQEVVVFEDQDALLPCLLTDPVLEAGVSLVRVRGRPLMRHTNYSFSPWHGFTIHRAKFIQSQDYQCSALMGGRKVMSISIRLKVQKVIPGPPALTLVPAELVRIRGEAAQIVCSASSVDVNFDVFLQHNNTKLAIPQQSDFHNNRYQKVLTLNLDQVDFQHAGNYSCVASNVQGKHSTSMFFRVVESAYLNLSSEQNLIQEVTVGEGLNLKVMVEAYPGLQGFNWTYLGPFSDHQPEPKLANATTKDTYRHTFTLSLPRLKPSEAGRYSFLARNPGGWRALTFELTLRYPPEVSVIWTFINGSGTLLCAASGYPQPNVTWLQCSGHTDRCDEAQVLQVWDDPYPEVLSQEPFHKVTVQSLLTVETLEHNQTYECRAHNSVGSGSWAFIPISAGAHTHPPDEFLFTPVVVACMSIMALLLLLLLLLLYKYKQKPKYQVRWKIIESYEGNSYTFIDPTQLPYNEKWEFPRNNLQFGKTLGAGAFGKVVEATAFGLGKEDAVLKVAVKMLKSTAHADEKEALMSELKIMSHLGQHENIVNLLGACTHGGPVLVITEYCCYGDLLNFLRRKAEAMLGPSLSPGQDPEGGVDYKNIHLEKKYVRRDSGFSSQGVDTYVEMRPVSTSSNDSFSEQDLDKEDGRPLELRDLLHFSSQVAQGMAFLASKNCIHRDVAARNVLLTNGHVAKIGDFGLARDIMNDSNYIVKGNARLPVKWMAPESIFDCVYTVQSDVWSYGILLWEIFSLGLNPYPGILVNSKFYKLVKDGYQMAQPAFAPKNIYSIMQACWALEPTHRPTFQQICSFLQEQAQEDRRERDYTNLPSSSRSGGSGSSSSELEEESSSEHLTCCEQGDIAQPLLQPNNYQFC
Protein polybromo-1 (Homo sapiens), sequence (Q86U86 whole entry): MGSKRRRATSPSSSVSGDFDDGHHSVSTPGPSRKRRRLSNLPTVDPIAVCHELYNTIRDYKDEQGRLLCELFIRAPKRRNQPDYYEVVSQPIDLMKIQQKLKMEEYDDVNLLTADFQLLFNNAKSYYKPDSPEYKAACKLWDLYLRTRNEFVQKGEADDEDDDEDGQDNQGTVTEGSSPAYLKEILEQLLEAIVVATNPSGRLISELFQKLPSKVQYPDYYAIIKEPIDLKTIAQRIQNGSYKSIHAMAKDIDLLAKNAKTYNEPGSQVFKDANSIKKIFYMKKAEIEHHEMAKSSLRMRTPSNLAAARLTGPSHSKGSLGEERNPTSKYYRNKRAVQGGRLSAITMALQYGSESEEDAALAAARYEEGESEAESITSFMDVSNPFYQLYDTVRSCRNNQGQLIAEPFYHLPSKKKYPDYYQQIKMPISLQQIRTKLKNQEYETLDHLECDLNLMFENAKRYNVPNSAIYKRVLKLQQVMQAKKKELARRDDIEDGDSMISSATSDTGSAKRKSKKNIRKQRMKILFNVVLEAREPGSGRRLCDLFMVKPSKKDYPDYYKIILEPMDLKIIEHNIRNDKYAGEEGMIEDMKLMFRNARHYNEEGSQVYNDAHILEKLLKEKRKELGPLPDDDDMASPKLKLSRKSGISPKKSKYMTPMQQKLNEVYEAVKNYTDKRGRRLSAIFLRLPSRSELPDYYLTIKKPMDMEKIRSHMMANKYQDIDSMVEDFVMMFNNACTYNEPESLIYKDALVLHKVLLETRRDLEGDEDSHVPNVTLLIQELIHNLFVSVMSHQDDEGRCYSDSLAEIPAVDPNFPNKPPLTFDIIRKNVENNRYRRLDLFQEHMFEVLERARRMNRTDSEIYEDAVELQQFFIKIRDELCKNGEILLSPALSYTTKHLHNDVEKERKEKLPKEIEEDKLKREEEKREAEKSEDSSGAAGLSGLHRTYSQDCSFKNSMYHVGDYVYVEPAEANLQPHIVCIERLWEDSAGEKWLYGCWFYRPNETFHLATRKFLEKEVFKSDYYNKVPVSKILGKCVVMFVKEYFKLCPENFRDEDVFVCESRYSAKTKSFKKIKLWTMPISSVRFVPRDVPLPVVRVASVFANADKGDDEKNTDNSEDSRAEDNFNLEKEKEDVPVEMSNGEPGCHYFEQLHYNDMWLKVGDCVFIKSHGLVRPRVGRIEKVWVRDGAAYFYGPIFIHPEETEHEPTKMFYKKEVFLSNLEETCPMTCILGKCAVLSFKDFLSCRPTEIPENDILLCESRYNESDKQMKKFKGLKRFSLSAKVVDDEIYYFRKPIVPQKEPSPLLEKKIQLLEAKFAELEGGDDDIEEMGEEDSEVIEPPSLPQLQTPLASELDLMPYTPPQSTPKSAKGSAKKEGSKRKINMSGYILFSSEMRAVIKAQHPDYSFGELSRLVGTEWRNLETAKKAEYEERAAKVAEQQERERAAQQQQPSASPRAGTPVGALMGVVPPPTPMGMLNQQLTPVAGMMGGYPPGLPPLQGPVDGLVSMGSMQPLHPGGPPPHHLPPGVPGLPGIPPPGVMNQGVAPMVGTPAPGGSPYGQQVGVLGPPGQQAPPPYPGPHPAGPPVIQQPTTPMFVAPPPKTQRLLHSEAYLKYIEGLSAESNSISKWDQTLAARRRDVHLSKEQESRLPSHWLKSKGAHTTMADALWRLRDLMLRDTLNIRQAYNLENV
Phosphorylase b kinase gamma catalytic chain, skeletal muscle/heart isoform (Homo sapiens), sequence (Q16816 whole entry, looked up, canonical isoform): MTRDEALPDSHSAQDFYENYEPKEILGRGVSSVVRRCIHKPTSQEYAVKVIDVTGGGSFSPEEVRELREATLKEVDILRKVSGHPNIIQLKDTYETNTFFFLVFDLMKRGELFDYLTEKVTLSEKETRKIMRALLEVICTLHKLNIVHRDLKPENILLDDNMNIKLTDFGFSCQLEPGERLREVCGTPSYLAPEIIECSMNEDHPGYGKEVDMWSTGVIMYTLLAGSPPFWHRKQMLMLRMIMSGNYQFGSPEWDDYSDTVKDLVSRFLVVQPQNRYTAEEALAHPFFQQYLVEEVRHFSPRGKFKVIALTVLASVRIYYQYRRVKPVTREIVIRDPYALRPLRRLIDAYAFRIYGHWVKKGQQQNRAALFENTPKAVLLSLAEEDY
Beta-1 adrenergic receptor, sequence (P08588 whole entry, looked up): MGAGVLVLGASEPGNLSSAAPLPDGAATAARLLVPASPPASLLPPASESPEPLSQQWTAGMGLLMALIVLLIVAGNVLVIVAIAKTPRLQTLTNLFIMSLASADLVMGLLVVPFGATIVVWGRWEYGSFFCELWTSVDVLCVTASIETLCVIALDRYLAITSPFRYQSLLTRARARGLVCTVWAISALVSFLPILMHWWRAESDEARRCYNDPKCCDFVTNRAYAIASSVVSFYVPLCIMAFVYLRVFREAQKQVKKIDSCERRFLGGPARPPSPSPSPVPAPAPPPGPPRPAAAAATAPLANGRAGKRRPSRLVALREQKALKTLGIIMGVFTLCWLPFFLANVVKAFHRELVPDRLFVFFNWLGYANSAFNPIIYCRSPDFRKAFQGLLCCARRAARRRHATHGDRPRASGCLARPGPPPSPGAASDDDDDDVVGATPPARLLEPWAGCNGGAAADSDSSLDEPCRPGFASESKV

## CCN(CC)CCCCNc1ncc2cc(-c3cc(OC)cc(OC)c3)c(NC(=O)NC(C)(C)C)nc2n1
[1]
  % of control: 100%

## CCC(=O)N1CCN(c2ccc(-n3c(=O)ccc4cnc5ccc(-c6cnc7ccccc7c6)cc5c43)cc2C(F)(F)F)CC1
[2]
  % of control: 41%

## CN(C)CCOc1ccc(-c2nc(-c3ccncc3)c(-c3ccc4c(c3)CC/C4=N\O)[nH]2)cc1
[3]
  % of control: 45%

## CN(C)CCCOc1ccc(-c2cc(NCCCn3cccn3)nc(S(C)(=O)=O)n2)cc1
[4]
  dTM: < 2 K

## Cn1cc(-n2cnc3c(NCc4nc5cc(Cl)c(Cl)cc5[nH]4)nc(N4CCOCC4)nc32)cn1
[5]
  % of control: 1.16%

## CC[C@@H]1[C@H](F)C(=O)N[C@@H]1COc1nccc2cc(C(N)=O)c(OC)cc12 [ZIMLOVISERTIB]
[6]
  % of inhibition: -1%

## Cc1cc(C)cc([C@@H]2c3cc(C)ccc3NC(=O)CN2C(=O)c2ccc(Br)s2)c1
[7]
  % of inhibition: -13%

## Cc1cc(F)c(C(=O)Nc2cccc(-c3nncn3C(C)C)n2)cc1-n1cnc(C2CC2)c1
[8]
  % of control: 100%

## COCC(=O)NC/C=C/c1ccc2ncnc(Nc3ccc(Oc4ccc(C)nc4)c(C)c3)c2c1 [CP-724714]
[9]
  % of control: 100%

## Cn1cc(Nc2nccc(N3CC4CCC(C3)N4C(=O)[C@@H]3CC3(F)F)n2)cn1
[10]
  % of inhibition: 59%
[11]
  % of inhibition: 91%

## CNCCN1CCC(c2cc(CN(C)C(=O)c3cccc(Oc4ccccc4)c3)ccn2)CC1
[12]
  IC50: > 10 µM

## N#Cc1cccc(-c2c[nH]c3ncnc(N4CCOCC4)c23)c1
[13]
  % of inhibition: 33%
